# Assays:
# [1] = test system: MT bundling in QBI-293 cells; assay: MT bundling in tau-transfected QBI-293 cells (immunofluorescence); format: cell-based; conditions: ten fields/transfection
# Procedure: FIG. 2, comprising FIG. 2A through FIG. 2K, depicts the results of experiments which illustrate that tau acetylation in cells inhibits tau-mediated MT stabilization. FIG. 2A depicts the results of an experiment where Doxycycline (Dox)-treated HEK-T40 cells were cultured in the presence of either trichostatin A (TSA), nicotinamide (NCA) or both and pulse labelled with [^3H]-acetate for 2 h. Tau was immunoprecipitated, treated with λ-phosphatase where indicated, and analyzed by SDS-PAGE followed by autoradiography and exposure to film for 2 weeks. Total cellular lysates were analyzed by immunoblotting using anti-tau (T14/T46), PHF-1 and GAPDH antibodies. FIG. 2B illustrates the results of an experiment where cells transfected with CBP were treated with TSA and acetylated tau levels were determined by immunoprecipitation/immunoblot analysis using anti-acetylated lysine antibody. Cellular lysates were immunoblotted using T14/46, PHF-1, AT8 and GAPDH antibodies. FIG. 2C depicts the results of an experiment where cells were transfected with CBP and either wild-type (WT) HDAC6 or the catalytically dead (CD) HDAC6-H611A mutant and tau acetylation was determined by immunoblotting similar to FIG. 2B above. FIG. 2D depicts the results of an experiment where QBI-293 cells were transfected with WT T40, 2KR (K280/281R), 3KR (K163/280/281R) or 4KR (K163/280/281/369R) mutant T40 and cell lysates were immunoblotted using anti-acetyl-lysine and total tau (T14/T46) antibodies. FIG. 2E through FIG. 2G are images illustrating the results of an experiment where QBI-293 cells were transfected with WT T40 (FIG. 2E) and total MT bundling was determined by immunofluorescence using anti-acetylated tubulin antibodies as shown for WT (FIG. 2F). Merged images indicate stabilized microtubules as shown for WT (FIG. 2G). FIG. 2H through FIG. 2J are images illustrating the results of an experiment where QBI-293 cells were transfected with 4KQ (K163/280/281/369Q) (FIG. 2H) and MT bundling was determined by immunofluorescence using anti-acetylated tubulin antibodies as shown for 4KQ (FIG. 2I) and merged images (FIG. 2J). Representative images are shown from n=4 independent experiments. Note, WT tau (FIG. 2E-FIG. 2G), but not 4KQ (FIG. 2H-FIG. 2J), promotes robust MT bundling. Scale bar, […]. FIG. 2K is a graph illustrating the results of an experiment where QBI-293 cells were transfected with WT T40, K280Q, 4KQ (K163/280/281/369Q) or 4KR mutant plasmids and MT bundling was determined from tau-expressing cells by quantification of ten fields/transfection and values are represented as % MT bundling from tau-expressing cells. Error bars indicate standard error of the mean. *P value=0.006, ***P value=8.46×10^−6 as determined by Student's t-test. […]
# [2] = biological target: T1, tau-K18 acetyltransferase activity (Homo sapiens, UniProt P10636); assay: Tau auto-acetylation filter binding assay, cofactor inhibition analysis; format: biochemical; conditions: 25 μM tau, 450 μM [3H]-acetyl-CoA; for IC50: 1 hr at 37° C., read-out: IC50 for inhibition of acetyl-CoA-dependent tau-K18 acetyltransferase activity
# T1 construct: made in house
# T1 sequence (P10636 561-685 limits assumed): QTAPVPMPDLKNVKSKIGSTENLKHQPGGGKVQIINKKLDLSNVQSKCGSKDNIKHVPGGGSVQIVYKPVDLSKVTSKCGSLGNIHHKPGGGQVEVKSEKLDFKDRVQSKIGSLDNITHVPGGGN
# Procedure: Reactions were assembled in 50 μl of reaction buffer containing 50 mM Tris pH 8.0, 100 μM EDTA, and 10% glycerol. Unless specifically noted, reactions contained 25 μM of either WT tau-K18 or tau-K18-2CA mutant. The reactions were initiated by the addition of [^3H]-acetyl-CoA (2.35 Ci mmol^−1, Perkin Elmer) at concentrations ranging from 2.5 μM to 1 mM, incubated at 37° C., and allowed to proceed for 1 hr (unless otherwise noted). Reactions were stopped by the addition of 10 μl of 3 mM CoA, and 25 μl of the reaction was then spotted to a P81 filter paper (Whatman), washed in 10 mM HEPES pH 7.5 three times, and dried using acetone. Incorporated [^3H]-acetyl-CoA was then measured using the Perkin Elmer Tri-Carb 2800TR Liquid Scintillation Analyzer, and the molar amount of acetyl groups incorporated into tau were calculated from a standard curve of the radiolabeled acetyl-CoA.
# Reactions were performed in the buffer described above and at 25 μM tau. Reactions included between 1 and 4000 μM of the inhibitors: CoA, acetonyl-CoA, or pantothenic acid. All reactions were initiated by the addition of 450 μM [^3H]-acetyl-CoA (2.35 Ci mmol^−1, Perkin Elmer), incubated for 1 hr at 37° C., and stopped by spotting 25 μl of the reaction to the P81 filter paper. Radiolabeled incorporation was measured as stated above. All data were analyzed using GraphPad Prism to determine kinetic parameters and IC50 values.
# [3] = test system: acetylated tau in HEK-T40 cells; assay: Tau acetylation in HEK-T40 cells ([3H]-acetate labelling / immunoprecipitation); format: cell-based, human
# Procedure: FIG. 2, comprising FIG. 2A through FIG. 2K, depicts the results of experiments which illustrate that tau acetylation in cells inhibits tau-mediated MT stabilization. FIG. 2A depicts the results of an experiment where Doxycycline (Dox)-treated HEK-T40 cells were cultured in the presence of either trichostatin A (TSA), nicotinamide (NCA) or both and pulse labelled with [^3H]-acetate for 2 h. Tau was immunoprecipitated, treated with λ-phosphatase where indicated, and analyzed by SDS-PAGE followed by autoradiography and exposure to film for 2 weeks. Total cellular lysates were analyzed by immunoblotting using anti-tau (T14/T46), PHF-1 and GAPDH antibodies. FIG. 2B illustrates the results of an experiment where cells transfected with CBP were treated with TSA and acetylated tau levels were determined by immunoprecipitation/immunoblot analysis using anti-acetylated lysine antibody. […] FIG. 2C depicts the results of an experiment where cells were transfected with CBP and either wild-type (WT) HDAC6 or the catalytically dead (CD) HDAC6-H611A mutant and tau acetylation was determined by immunoblotting similar to FIG. 2B above. […] FIG. 2E through FIG. 2G are images illustrating the results of an experiment where QBI-293 cells were transfected with WT T40 (FIG. 2E) and total MT bundling was determined by immunofluorescence using anti-acetylated tubulin antibodies as shown for WT (FIG. 2F). […]
# [4] = test system: auto-acetylated substrate; conditions: auto-acetylation, cited from earlier work; for Km: read-out: Km AcCoA [auto]
# [5] = test system: histones and microtubules; conditions: substrate as listed (H4-21, H3p19, H3, microtubules); cited from earlier work
# [6] = Heparin-induced tau fibrillization assay quantified by Thioflavin-T binding; format: biochemical; conditions: 10 μM tau proteins, 10 μM heparin, 4-h incubation
# Procedure: (§1) Recombinant full-length T40, 4R-tau MT-binding domain K18, or tau fibrils were acetylated by incubation with [^14C]-labeled acetyl-CoA in the presence or absence of CBP. FIG. 1A illustrates that the reaction products were analyzed by SDS-PAGE and Coomassie blue staining followed by overnight radiographic exposure using STORM phosphor-imager software. FIG. 1B depicts the results of an experiment where T40 or K18 proteins were incubated with acetyl-CoA and/or recombinant CBP and reaction products were subjected to immunoblot analysis using a polyclonal anti-tau-specific antibody for MT repeat domain (E10) and an anti-acetyl-lysine antibody. FIG. 1C is a graph depicting the MT assembly activities of K18 proteins as evaluated in light-scattering assays. Tubulin monomers (30 μM) were mixed with 40 μM tau proteins in MT assembly buffer supplemented with 2 mM guanosine triphosphate. MT assembly was determined by monitoring absorbance every minute at 350 nm using a SpectraMax plate reader. […] FIG. 1D is a graph illustrating the results of experiments where Tau proteins (10 μM) were evaluated in fibrillization reactions using 10 μM heparin to induce assembly. […] Samples were analysed by SDS-PAGE and Coomassie staining to monitor fibril formation. FIG. 1F illustrates the results of experiments where four-hour time points from fibrillization reactions were analysed by negative-staining EM. […]
# Tau K18 protein was either mock acetylated or acetylated in vitro using acetyl-CoA substrate as indicated elsewhere herein. […] Protein concentrations were determined using the bicinchoninic acid protein assay (Pierce) with bovine serum albumin as the standard. Acetylated K18 and mock-treated K18 were assessed by a light-scattering assay as described elsewhere herein. […] The extent of fibrillization was assessed at different time points by ThT fluorescence assay, sedimentation analysis and negative staining EM as described elsewhere herein. For ThT fluorescence assay, ThT diluted in 100 mM glycine buffer (pH 8.5) was added and fluorometric readings were taken at 450 nm (excitation) and 510 nm (emission). […]
# tubulin = assay: MT assembly light-scattering assay; format: biochemical; conditions: 30 μM tubulin, 40 μM tau proteins, 2 mM GTP
# Procedure: as §1
compound,measurement,setting,value
4KQ: tau acetylation mimetic K163/280/281/369Q,% MT bundling from tau-expressing cells,[1],~7%
4KR: tau non-mimetic mutant K163/280/281/369R,% MT bundling from tau-expressing cells,[1],~50%
CC(C)(COP(=O)(O)OP(=O)(O)OC[C@H]1O[C@@H](n2cnc3c(N)ncnc32)[C@H](O)[C@@H]1OP(=O)(O)O)[C@@H](O)C(=O)NCCC(=O)NCCS [CoA],IC50,[2],59 µM
CC(=O)CSCCNC(=O)CCNC(=O)[C@H](O)C(C)(C)COP(=O)(O)OP(=O)(O)OC[C@H]1O[C@@H](n2cnc3c(N)ncnc32)[C@H](O)[C@@H]1OP(=O)(O)O [acetonyl-CoA],IC50,[2],668 µM
CC(C)(CO)[C@@H](O)C(=O)NCCC(=O)O [pantothenic acid],inhibition of tau activity (cofactor competition),[2]; between 1 and 4000 μM inhibitor,did not show significant inhibition
CC(/C=C/C(=O)NO)=C\[C@@H](C)C(=O)c1ccc(N(C)C)cc1 [trichostatin A],acetylated tau levels,[3]; HEK-T40 cells pulse labelled with [3H]-acetate for 2 h,dramatic increase in acetylated tau levels
same,acetylated tau (anti-acetyl-lysine),[3]; HEK-T40 cells transiently transfected with CBP,dramatic accumulation of acetylated tau
"ESA1: MYST-family acetyltransferase, literature kinetics",Km,[4],9.4 µM
same,Kcat,[5],0.122 s⁻¹
"K18-K311D: K18 containing the K311D mutation, negative control",fibrillization (ThT),[6],did not fibrillize
K280Q: single K280Q acetylation mimetic of T40 tau,% MT bundling from tau-expressing cells,[1],~40%
Rtt109 + Vps75: acetyltransferase listed for literature kinetics comparison,Kcat [auto],[4],0.002 s⁻¹
same,Km,[4],912 µM
same,Kcat,[5],0.375 s⁻¹
WT tau: wild-type longest human tau isoform (T40) expressed in cells,% MT bundling from tau-expressing cells,[1],~55%
acetylated K18: tau K18 protein acetylated in vitro using acetyl-CoA and CBP,MT assembly (absorbance at 350 nm),tubulin,failed to promote MT assembly
same,fibrillization (ThT),[6],fibrillized rapidly by 3 h
"p300: nuclear acetyltransferase, literature kinetics",Km,[4],3310 µM
same,Kcat,[5],0.46 s⁻¹

# Source: patent US20130251731A1, “Tau Acetylation in the Pathogenesis of Alzheimers Disease and Other Related Tauopathies” (THE TRUSTEES OF THE UNIVERSITY OF PENNSYLVANIA, priority 2012, published 2013)
